From ChEMBL document CHEMBL1201862, “PubChem BioAssay data set” (2004)
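Test compounds were applied to cells in 96-well plates for 48 hours at 5 doses. Here, GI50 denotes the concentration required for 50% inhibition of growth.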 The source made the active and inactive calls. Cut-off read from the data, not from the text of the source: active = GI50 up to about 1.1 µM and inactive = higher.

What was measured:
Experiment in all cases: growth of human tumour cells (NCI), 48 h
[1] = tested on: MCF7
[2] = tested on: OVCAR-3
[3] = tested on: HCC 2998
[4] = tested on: SK-MEL-2
[5] = tested on: HCT-116
[6] = tested on: MDA-MB-231
[7] = tested on: NCI-H23
[8] = tested on: OVCAR-5
[9] = tested on: Hs-578T
[10] = tested on: EKVX
[11] = tested on: A549
[12] = tested on: SF-268
[13] = tested on: SN12C
[14] = tested on: SF-539
[15] = tested on: SR
[16] = tested on: COLO 205
[17] = tested on: A498
[18] = tested on: HOP-92
[19] = tested on: SK-MEL-28
[20] = tested on: RXF 393

SMILES	GI50 [1]	GI50 [2]	GI50 [3]	GI50 [4]	GI50 [5]	GI50 [6]	GI50 [7]	GI50 [8]	GI50 [9]	GI50 [10]	GI50 [11]	GI50 [12]	GI50 [13]	GI50 [14]	GI50 [15]	GI50 [16]	GI50 [17]	GI50 [18]	GI50 [19]	GI50 [20]
C=CCN1CN(C2CCCCC2)CSC1=S	1.26 µM (inactive)	7.01 µM (inactive)	8.17 µM (inactive)	8.18 µM (inactive)	1.55 µM (inactive)	15.5 µM (inactive)	8.28 µM (inactive)	9.08 µM (inactive)	4.94 µM (inactive)	15.6 µM (inactive)	16.5 µM (inactive)	2.32 µM (inactive)	6.84 µM (inactive)	1.36 µM (inactive)	0.148 µM (active)	3.32 µM (inactive)	14.3 µM (inactive)	5.18 µM (inactive)	5.18 µM (inactive)	4.04 µM (inactive)
Cc1ccc(Nc2n[nH]c(=S)s2)cc1	> 100 µM (inactive)	> 100 µM (inactive)	> 100 µM (inactive)		> 100 µM (inactive)	> 100 µM (inactive)	> 100 µM (inactive)	> 100 µM (inactive)	> 100 µM (inactive)	> 100 µM (inactive)	> 100 µM (inactive)	> 100 µM (inactive)	> 100 µM (inactive)	> 100 µM (inactive)	> 100 µM (inactive)	> 100 µM (inactive)	> 100 µM (inactive)	> 100 µM (inactive)	> 100 µM (inactive)	> 100 µM (inactive)
CS(=O)(=O)c1nc(Cl)c(Cl)c(C#N)c1Cl	3.42 µM (inactive)	2.08 µM (inactive)	14.2 µM (inactive)	5.37 µM (inactive)	2.25 µM (inactive)	0.619 µM (active)	1.32 µM (inactive)	4.39 µM (inactive)	4.34 µM (inactive)	6.27 µM (inactive)	18.7 µM (inactive)	6.76 µM (inactive)	2.27 µM (inactive)	4.48 µM (inactive)	0.736 µM (active)	1.45 µM (inactive)	17.5 µM (inactive)	1.99 µM (inactive)	2.12 µM (inactive)	1.61 µM (inactive)
C[C@@]12C[C@@H](c3ccccc3O1)N1CCCCSC1=N2	> 100 µM (inactive)	> 100 µM (inactive)	> 100 µM (inactive)	> 100 µM (inactive)	> 100 µM (inactive)	> 100 µM (inactive)	> 100 µM (inactive)	> 100 µM (inactive)	> 100 µM (inactive)	> 100 µM (inactive)		> 100 µM (inactive)	> 100 µM (inactive)	> 100 µM (inactive)	> 100 µM (inactive)	> 100 µM (inactive)	> 100 µM (inactive)	> 100 µM (inactive)	> 100 µM (inactive)	> 100 µM (inactive)
Cc1cn(CC2=NCCN2)c(=O)[nH]c1=O	> 100 µM (inactive)		> 100 µM (inactive)	> 100 µM (inactive)	> 100 µM (inactive)	> 100 µM (inactive)	> 100 µM (inactive)	> 100 µM (inactive)	> 100 µM (inactive)	> 100 µM (inactive)	> 100 µM (inactive)	> 100 µM (inactive)	> 100 µM (inactive)		> 100 µM (inactive)	> 100 µM (inactive)	> 100 µM (inactive)	> 100 µM (inactive)	> 100 µM (inactive)	> 100 µM (inactive)
CCOC(=O)C1=C(C)N(Cc2ccc(Cl)cc2Cl)C2(O)C=CC(=O)C3C(=O)N(c4ccccc4)C(=O)C132 (centres undefined)	0.857 µM (active)	1.37 µM (inactive)	1.71 µM (inactive)	1.77 µM (inactive)	3.11 µM (inactive)	2.1 µM (inactive)	1.63 µM (inactive)	3.17 µM (inactive)	3.37 µM (inactive)	1.89 µM (inactive)	2.11 µM (inactive)	2.38 µM (inactive)	1.91 µM (inactive)	2.23 µM (inactive)	0.51 µM (active)	1.7 µM (inactive)	4.57 µM (inactive)	1.78 µM (inactive)	1.59 µM (inactive)	1.32 µM (inactive)
Cc1cn(C2CC(O)C(Cn3nncc3Cn3ccc(=O)[nH]c3=O)O2)c(=O)[nH]c1=O (centres undefined)	> 100 µM (inactive)	> 100 µM (inactive)	> 100 µM (inactive)	> 100 µM (inactive)	> 100 µM (inactive)	> 100 µM (inactive)	> 100 µM (inactive)	> 100 µM (inactive)	> 100 µM (inactive)	> 100 µM (inactive)	> 100 µM (inactive)	> 100 µM (inactive)	> 100 µM (inactive)	> 100 µM (inactive)	> 100 µM (inactive)	> 100 µM (inactive)	> 100 µM (inactive)	> 100 µM (inactive)	> 100 µM (inactive)	> 100 µM (inactive)
CNc1ccc(Cl)cc1C(=O)N1CCC[C@H]1CO	> 100 µM (inactive)	> 100 µM (inactive)	> 100 µM (inactive)	> 100 µM (inactive)	> 100 µM (inactive)	> 100 µM (inactive)	> 100 µM (inactive)	> 100 µM (inactive)	> 100 µM (inactive)	> 100 µM (inactive)	> 100 µM (inactive)	> 100 µM (inactive)	> 100 µM (inactive)	> 100 µM (inactive)	80.9 µM (inactive)	> 100 µM (inactive)	> 100 µM (inactive)	> 58.6 µM (inactive)	> 100 µM (inactive)	> 100 µM (inactive)
COCCN(C(=O)c1ccccc1)C1CCC2(SCCS2)c2[nH]c3ccccc3c21 (centres undefined)	37.5 µM (inactive)	51.2 µM (inactive)	51.4 µM (inactive)		37.8 µM (inactive)	57.7 µM (inactive)	51.5 µM (inactive)	> 100 µM (inactive)	29.4 µM (inactive)	30.3 µM (inactive)	26.2 µM (inactive)	> 100 µM (inactive)	40.2 µM (inactive)	85.5 µM (inactive)	29.7 µM (inactive)	37.7 µM (inactive)	45.7 µM (inactive)	20.1 µM (inactive)	74 µM (inactive)	20.7 µM (inactive)
CSc1c(C(N)=S)c(N)nn1-c1ccccc1	> 100 µM (inactive)	> 100 µM (inactive)	> 100 µM (inactive)	> 100 µM (inactive)	> 100 µM (inactive)	> 100 µM (inactive)	> 100 µM (inactive)	> 100 µM (inactive)	> 100 µM (inactive)	> 100 µM (inactive)	> 100 µM (inactive)	> 100 µM (inactive)	> 100 µM (inactive)	> 100 µM (inactive)	> 100 µM (inactive)	> 100 µM (inactive)	> 100 µM (inactive)	> 100 µM (inactive)	> 100 µM (inactive)	> 100 µM (inactive)
O=c1[nH]c(=O)n(C2OC(CO)C(O)C2O)cc1OCCc1ccccc1 (centres undefined)	> 100 µM (inactive)	> 100 µM (inactive)	> 100 µM (inactive)	> 100 µM (inactive)	> 100 µM (inactive)	> 100 µM (inactive)	> 100 µM (inactive)	> 100 µM (inactive)	> 100 µM (inactive)	> 100 µM (inactive)	> 100 µM (inactive)	> 100 µM (inactive)	> 100 µM (inactive)	> 100 µM (inactive)	> 100 µM (inactive)	> 100 µM (inactive)	> 100 µM (inactive)	> 100 µM (inactive)	> 100 µM (inactive)	> 100 µM (inactive)
CCN(CC)c1ncnc2c1ncn2CCNC(CO)(CO)CO	> 100 µM (inactive)	> 100 µM (inactive)	> 100 µM (inactive)	> 100 µM (inactive)	> 100 µM (inactive)	> 100 µM (inactive)	> 100 µM (inactive)	> 100 µM (inactive)	> 100 µM (inactive)	> 100 µM (inactive)	> 100 µM (inactive)	> 100 µM (inactive)	> 100 µM (inactive)	> 100 µM (inactive)	> 100 µM (inactive)	> 100 µM (inactive)	> 100 µM (inactive)	> 100 µM (inactive)	> 100 µM (inactive)	> 100 µM (inactive)
Oc1cccc2ccc(Br)nc12	> 100 µM (inactive)	> 100 µM (inactive)	63 µM (inactive)		> 100 µM (inactive)	> 100 µM (inactive)	> 100 µM (inactive)	> 100 µM (inactive)	> 100 µM (inactive)	> 100 µM (inactive)	> 100 µM (inactive)	> 100 µM (inactive)	> 100 µM (inactive)	> 100 µM (inactive)	62.4 µM (inactive)	> 100 µM (inactive)	> 100 µM (inactive)	> 100 µM (inactive)	> 100 µM (inactive)	> 100 µM (inactive)
O/N=N/c1ccccn1.OCC1OC2OC3C(CO)OC(OC4C(CO)OC(OC5C(CO)OC(OC6C(CO)OC(OC7C(CO)OC(OC1C(O)C2O)C(O)C7O)C(O)C6O)C(O)C5O)C(O)C4O)C(O)C3O (centres undefined)	> 100 µM (inactive)	40.8 µM (inactive)	> 100 µM (inactive)	56.9 µM (inactive)	41.6 µM (inactive)	> 100 µM (inactive)	> 100 µM (inactive)	> 100 µM (inactive)	> 100 µM (inactive)	> 100 µM (inactive)	> 100 µM (inactive)	> 100 µM (inactive)	> 100 µM (inactive)	52.8 µM (inactive)	0.583 µM (active)	> 100 µM (inactive)	> 100 µM (inactive)	> 100 µM (inactive)	62.5 µM (inactive)	> 100 µM (inactive)
